For data set [1] the following is noted: 101 kPa, Liquid.
Data set [2] in a line: xn = mol fraction of the nth substance listed. As to conditions: 101 kPa, Liquid, x1 = 1.

± gives the expanded uncertainty stated by the source.

In the case of `c1ccccc1` [benzene], the mass density in data set [1] (288.15 K) was found to be 884.246 ± 0.15 kg/m3; in data set [1] (293.15 K), 878.918 ± 0.16 kg/m3; in data set [1] (298.15 K), 873.582 ± 0.16 kg/m3; in data set [1] (303.15 K), 868.233 ± 0.17 kg/m3; in data set [1] (308.15 K), 862.871 ± 0.17 kg/m3; in data set [1] (313.15 K), 857.498 ± 0.17 kg/m3.
`CCCCO` [butan-1-ol]: the mass density in data set [1] (288.15 K) turned out to be 813.373 ± 0.24 kg/m3; in data set [1] (293.15 K), 809.573 ± 0.24 kg/m3; in data set [1] (298.15 K), 805.762 ± 0.25 kg/m3; in data set [1] (303.15 K), 801.923 ± 0.25 kg/m3; in data set [1] (308.15 K) it was 798.053 ± 0.25 kg/m3; in data set [1] (313.15 K), 794.147 ± 0.25 kg/m3.
As for `CCCCO` [butan-1-ol] + ClC(Cl)Cl, the mass density is reported as 813.373 ± 0.24 kg/m3 in data set [2] (288.15 K); 809.573 ± 0.24 kg/m3 in data set [2] (293.15 K); 805.762 ± 0.25 kg/m3 in data set [2] (298.15 K); 801.923 ± 0.25 kg/m3 in data set [2] (303.15 K); 798.053 ± 0.25 kg/m3 in data set [2] (308.15 K); 794.147 ± 0.25 kg/m3 in data set [2] (313.15 K).
`CCCCO` [butan-1-ol] + c1ccccc1: the mass density in data set [2] (288.15 K) was 813.373 ± 0.24 kg/m3; in data set [2] (293.15 K) it was 809.573 ± 0.24 kg/m3; in data set [2] (298.15 K), 805.762 ± 0.25 kg/m3; in data set [2] (303.15 K) it was 801.923 ± 0.25 kg/m3; in data set [2] (308.15 K), 798.053 ± 0.25 kg/m3; in data set [2] (313.15 K) it was 794.147 ± 0.25 kg/m3.
With `ClC(Cl)Cl` [trichloromethane], the mass density in data set [1] (288.15 K) came out at 1498.08 ± 0.47 kg/m3; in data set [1] (293.15 K), 1488.64 ± 0.46 kg/m3; in data set [1] (298.15 K), 1479.15 ± 0.45 kg/m3; in data set [1] (303.15 K), 1469.61 ± 0.45 kg/m3; in data set [1] (308.15 K), 1460.03 ± 0.44 kg/m3; in data set [1] (313.15 K), 1450.41 ± 0.43 kg/m3.

The values are drawn from the NIST ThermoML archive (doi:10.1007/s10765-008-0390-4).
